One assay concerns MDR K. pneumoniae. Kind of assay: Isobologram analysis and FICI, PvAMP66 with gentamicin. Format: cell-based, Klebsiella pneumoniae. The protocol: Given the intermediate resistance to gentamicin, an isobologram analysis was used as a proof-of-concept to evaluate the interaction between PvAMP66 and the antibiotic. The growth inhibition of the clinical isolate was measured using peptide concentrations of 0.10–100 µM, and gentamicin concentrations of 0.10–50 µM (Supplementary Figure S10). Combined IC50 values were calculated and plotted in a graph with a secant line representing the IC50 values for PvAMP66 and gentamicin when used alone (Figure 2a). […] The concentrations adjacent to the aforementioned data point were evaluated. […] Additionally, a Fractional Inhibitory Concentration Index (FICI) of 0.59 was obtained.
For the isobologram analysis concentrations, ranges of 1.56 µM to 200 µM of the peptide and 0.07 µM to 100 µM of the gentamicin were used. The experiments were conducted in triplicate and repeated in two independent assays. The IC50 for each combination was determined using either logarithmic or linear regression. Then, when achieving 50% growth inhibition, the concentrations of the peptide and gentamicin were recorded and used to create an isobologram graph with a ‘peptide concentration’ vs. ‘gentamicin concentration’ plot. […] The fractional inhibitory concentration index was calculated as follows: FICI=Combined MICAntibiotic/MICAntibiotic+Combined MICPeptide/MICPeptide

The test system of assay [1] is multidrug-resistant (MDR) strain of K. pneumoniae, clinical isolate. Kind of assay: microbe, parasite or virus in culture. Format: cell-based, Klebsiella pneumoniae. As for the experimental part:
A multidrug-resistant (MDR) strain of K. pneumoniae was identified and isolated from a tertiary-level hospital in Medellin, Colombia, using the VITEK-2 system (bioMérieux, Marcy-l’Étoile, France). The MDR strain was evaluated against several antibiotics at concentrations of 1.56–100 μM. […] In contrast, the strain was susceptible to doxycycline (Supplementary Figure S7g) and chloramphenicol (Supplementary Figure S7h), with MICs of 50 μM and 100 µM, respectively (Table 3). […] All of P. verdolaga’s AMPs were evaluated against the clinical isolate at concentrations of 1.56–200 µM (Supplementary Figure S8). […] A growth inhibition kinetic assay was conducted. […] All of P. verdolaga’s peptides at 100 μM induced morphological changes in the MDR K. pneumoniae, indicating membrane interactions, even though no significant inhibition was observed (Supplementary Figure S9).
The evaluation of the antimicrobial activity of the peptides was conducted using the CLSI’s broth microdilution method for bacterial susceptibility testing. For the screening phase, peptides were evaluated at a single 30 μM concentration, in triplicate and in three independent assays, against the E. coli ATCC® 8739, E. coli ATCC® 25922, S. aureus ATCC® 6538, or S. aureus ATCC® 29213 reference USP and CLSI strains. For the determination of MIC, MBC, or IC50, peptides or antibiotics were evaluated in concentrations between 1.56–200 µM. These evaluations were conducted in triplicate and in three independent assays, against the E. coli ATCC® 25922, S. aureus ATCC® 29213, E. faecalis ATCC® 49532, P. aeruginosa ATCC® 9027, and K. pneumoniae ATCC® BAA-1705, or the clinically isolated MDR strain. In detail, 1 mL of a glycerol stock solution of the ATCC® or clinically isolated bacterial strain was added to 9 mL of Mueller-Hinton Broth and incubated for 18 h, 180 rpm and 37 °C (Incubator 1000, Heidolph Instruments, Schwabach, Germany). After the incubation, 1 mL of the previous solution was transferred to a new recipient containing 9 mL of fresh Mueller-Hinton broth and incubated for 4 h, 180 rpm and 37 °C (Incubator 1000, Heidolph Instruments, Schwabach, Germany). During the second incubation, the peptides or the antibiotics were dissolved in PBS pH 7.20 in concentrations between 19.53–2500 µM (MC5 Micro Balance, Sartorius AG, Göttingen, Germany). An amount of 10 µL of either peptide or antibiotic was dispensed in triplicate in 96-well flat bottom culture plates, along with 10 µL of PBS (Negative activity control), BTM-P1 (Positive activity control), or 10 µL of Mueller-Hinton broth (Blank); then, 110 µL of Mueller-Hinton broth was poured in all wells. Following this, the bacteria were suspended in Mueller-Hinton broth up to a concentration of approximately 1.50 × 10^8 CFU/mL, as measured by optical density at 600 nm between 0.06 to 0.11 (0.5 McFarland standard), in a Multiskan SkyHigh spectrophotometer (ThermoFisher Scientific, Waltham, MA, USA). Amounts of 5 µL of the 1.50 × 10^8 CFU/mL suspension were added to each well (except for the blank) for a final well concentration of approximately 6 × 10^6 CFU/mL. The plate was incubated for 24 h at 37 °C (BE 500, Memmert GmbH, Büchenbach, Germany) and optical density was measured at 600 nm in a Multiskan SkyHigh spectrophotometer (ThermoFisher Scientific, Waltham, MI, USA). Following the measurement of optical density, plates were visually inspected to determine the MIC. Subsequently, 100 µL of the concentration associated to the MIC and 100 µL of the next higher concentration were added to Petri dishes containing Mueller-Hinton Agar. The dishes were then incubated for 24 h at 37 °C (BE 500, Memmert GmbH, Büchenbach, Germany). After incubation, the Petri dishes were visually inspected, and the MBC was determined in the absence of growth. IC50 values were interpolated from regressions with correlation values above 0.70. […]

In the case of `CNC(C)C1CCC(N)C(OC2C(N)CC(N)C(OC3OCC(C)(O)C(NC)C3O)C2O)O1` (stereo not drawn) [Gentamicin, gentamicin], the IC50 with MDR K. pneumoniae (Klebsiella pneumoniae, with PvAMP66 9.85 µM, read-out: combined IC50 for gentamicin) came out at 3.12 µM; in assay [1] (Klebsiella pneumoniae) it was 33.4 µM. For the same compound, the “combined MIC, gentamicin” value in the assay on MDR K. pneumoniae (with 12.50 µM PvAMP66) came out at 4.70 µM. In addition, the MIC in assay [1] (Klebsiella pneumoniae, MDR K. pneumoniae clinical isolate) was 9.31 µg/mL; in assay [1] (MDR K. pneumoniae clinical isolate, peptides 1.56–200 µM, antibiotics 1.56–100 µM, 24 h 37 °C) it was 50.00 µM. Also, the “Classification at 10^6 CFU/mL” value in assay [1] (MDR K. pneumoniae clinical isolate, CLSI classification) is reported as “Intermediate resistant”.

The values are drawn from paper PMC10812672, “Short Antimicrobial Peptide Derived from the Venom Gland Transcriptome of Pamphobeteus verdolaga Increases Gentamicin Susceptibility of Multidrug-Resistant Klebsiella pneumoniae” (Antibiotics, 2023).
